Consider 13 compounds from US12122785B2, “Substituted pyridines, pyridazines, pyrimidines, and 1,2,4-triazines as TYK2 inhibitors” (Sudo Biosciences Limited, priority 2021, dated 2024).

Experiment [1] concerns TYK2 pseudokinase (JH2); IL-23-stimulated HEK-Blue IL-23 cells. As to the kind of experiment: HEK-Blue IL-23 reporter assay (STAT3-inducible SEAP) for profiling TYK2 pseudokinase (JH2) inhibition. It counts as cell-based. Conditions: 10 ng/mL human recombinant IL-23, SEAP readout, read-out: IL23 (TYK2 inhibitory activity, IC50). How it is done:
(§1) Example B-1: HEK-Blue™ IL-23 and IFNα/β Reporter Assays for Profiling TYK2 Pseudokinase (JH2) Inhibition
(§2) HEK-Blue™ IL-23 and IFNα/β cells with a stably-integrated cytokine receptor and STAT3 or STAT1 express STAT-inducible secreted embryonic alkaline phosphatase (SEAP) reporter gene upon cytokine stimulation. These cells are plated in DMEM (Gibco) containing 10% heat-inactivated FBS (Gibco) and 100 U/mL PenStrep (Gibco) at 37° C. under 5% CO2 conditions for 20-22 hours. The cells are then pretreated with serially diluted test compounds for 60 min prior to stimulation with either 10 ng/mL human recombinant IL-23 (Miltenyl Biotech) or 1 ng/mL human recombinant IFNα (InvivoGen) for 22-24 hours for IL-23 or 16-18 h for IFNα. SEAP induction is measured using the QUANTI Blue™ Solution (InvivoGen) according to the manufacturer's instructions.
(In general: Reporter assays use an easily measured gene product as a stand-in for the process of interest.)

Experiment [2] has as its system TYK2 pseudokinase (JH2); IFNα-stimulated HEK-Blue IFNα/β cells. As to the kind of experiment: HEK-Blue IFNα/β reporter assay (STAT1-inducible SEAP) for profiling TYK2 pseudokinase (JH2) inhibition. It counts as cell-based. Conditions: 1 ng/mL human recombinant IFNα, SEAP readout, read-out: IFNα (TYK2 inhibitory activity, IC50). As to the method: as §1, §2
The test system of experiment [3] is IL-2-stimulated HEK-Blue IL-2 reporter cells. Description: HEK-Blue IL-2 reporter assay (STAT5-inducible SEAP) for determining selectivity. It counts as cell-based. Conditions: 4 ng/mL human recombinant IL-2, 24 hours. As to the method:
(§3) Example B-3: HEK-Blue™ IL-2 and IFNγ Reporter Assays for Determining Selectivity
(§4) HEK-Blue™ IL-2 and IFNγ reporter cells with a stably-integrated cytokine receptor and STAT5 or STAT1 express STAT-inducible secreted embryonic alkaline phosphatase (SEAP) reporter gene upon cytokine stimulation. These cells were plated in DMEM (Gibco) containing 10% heat-inactivated FBS (Gibco) and 100 U/mL PenStrep (Gibco) at 37° C. under 5% CO2 conditions for 20-22 hours. The cells were then pretreated with serially diluted test compounds for 60 min prior to stimulation with either 4 ng/mL human recombinant IL-2 (Miltenyl Biotech) or 50 ng/mL human recombinant IFNγ (InvivoGen) for 24 hours. SEAP induction was measured using the QUANTI-Blue™ Solution (InvivoGen) according to the manufacturer's instructions.

In experiment [4] the test system is IFNγ-stimulated HEK-Blue IFNγ reporter cells. Description: HEK-Blue IFNγ reporter assay (STAT1-inducible SEAP) for determining selectivity. Conditions: 50 ng/mL human recombinant IFNγ, 24 hours, read-out: IFN-γ SEAP selectivity assay IC50. Type of experiment: cell-based. As to the method: as §3, §4
Experiment [5] concerns the target T1, TYK2 kinase domain (JH1) (Homo sapiens, UniProt P29597).
T1 construct: recombinant purified His or GST-tagged catalytic domain for each enzyme; made in house
T1 sequence (P29597 897-1176 limits assumed): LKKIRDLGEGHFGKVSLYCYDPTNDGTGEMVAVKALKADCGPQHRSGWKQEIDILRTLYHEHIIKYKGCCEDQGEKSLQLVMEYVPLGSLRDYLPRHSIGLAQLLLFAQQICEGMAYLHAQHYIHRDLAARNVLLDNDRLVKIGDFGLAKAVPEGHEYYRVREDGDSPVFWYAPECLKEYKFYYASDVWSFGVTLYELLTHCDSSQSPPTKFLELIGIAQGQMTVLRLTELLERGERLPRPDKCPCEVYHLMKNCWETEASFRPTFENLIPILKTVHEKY
Description: HTRF-based selectivity assay, TYK2 catalytic domain. Conditions: 20 μM ATP. Type of experiment: biochemical. How it is done:
(§5) Example B-2: HTRF-Based Selectivity Assay
(§6) The ability of compounds to inhibit the activity of JAK1, JAK2, JAK3 and TYK2 is measured using a recombinant purified His or GST-tagged catalytic domain for each enzyme (JAK1, JAK2 and TYK2 are generated in-house; JAK3 was purchased from Carna biosciences, Cat #08-046) in an HTRF format biochemical assay. The reactions employs a commercial peptide substrate from Cisbio (Cat #62TK0PEC). The basic assay protocol is as follows: first, 2.5 μL of diluted compounds (4×) in DMSO are dispensed into a 384-well Optiplate. Next, 2.5 μL of enzyme (final concentrations for enzymes are: TYK2—700 ng/mL, JAK1—80.6 ng/mL, JAK2—2.1 ng/mL and JAK3—171.8 ng/mL) is added and incubated at RT for 5-20 min. Finally, 5 μl of mixture of 2×ATP [Final concentration 20 μM for TYK2, 21.43 μM for JAK1, 14.7 μM for JAK2 and 2.12 μM for JAK3]+2× Substrate [Final concentration 217 nM for TYK2, 454.7 nM for JAK1, 200 nM for JAK2 and 257.4 nM for JAK3] is added to 384 well Optiplate. Composition of Kinase assay buffer used in the assay is as follows: HEPES 50 mM, EGTA 1 mM, MgCl2 10 mM, DTT 2 mM, Tween-20 0.01% and water. Then the plates are shaken and then incubated at 26.5° C. for 60 min.
(In general: Time-resolved FRET reads energy transfer from a long-lived donor to a nearby acceptor.)

For experiment [6], the target named is T2, JAK1 kinase domain (JH1) (Homo sapiens, UniProt P23458).
T2 construct: recombinant purified His or GST-tagged catalytic domain for each enzyme; made in house
Description: HTRF-based selectivity assay, JAK1 catalytic domain. Type of experiment: biochemical. Conditions: 21.43 μM ATP, read-out: JAK-JHI (IC50). As to the method: as §5, §6

The target of experiment [7] is T3, JAK2 kinase domain (JH1) (Homo sapiens, UniProt O60674).
T3 construct: recombinant purified His or GST-tagged catalytic domain for each enzyme; made in house
Description: HTRF-based selectivity assay, JAK2 catalytic domain. Conditions: 14.7 μM ATP. Type of experiment: biochemical. How it is done: as §5, §6

T2 sequence (P23458 875-1153 limits assumed): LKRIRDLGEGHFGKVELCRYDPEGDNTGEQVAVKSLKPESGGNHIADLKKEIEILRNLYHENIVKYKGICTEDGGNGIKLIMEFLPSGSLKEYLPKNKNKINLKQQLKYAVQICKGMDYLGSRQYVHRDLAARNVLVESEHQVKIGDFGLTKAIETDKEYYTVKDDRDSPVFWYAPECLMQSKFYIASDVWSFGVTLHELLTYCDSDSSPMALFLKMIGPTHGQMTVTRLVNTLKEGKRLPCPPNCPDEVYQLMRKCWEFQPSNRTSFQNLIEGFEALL
T3 sequence (O60674 849-1124 limits assumed): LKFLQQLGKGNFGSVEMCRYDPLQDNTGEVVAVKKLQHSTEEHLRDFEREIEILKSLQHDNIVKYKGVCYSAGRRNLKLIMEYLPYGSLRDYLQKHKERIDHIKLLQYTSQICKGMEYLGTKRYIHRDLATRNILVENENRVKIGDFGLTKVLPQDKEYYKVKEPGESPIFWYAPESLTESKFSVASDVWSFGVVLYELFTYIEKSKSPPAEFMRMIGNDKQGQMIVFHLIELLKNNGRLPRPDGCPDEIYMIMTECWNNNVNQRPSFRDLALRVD

As to `[2H]C([2H])([2H])NC(=O)c1nnc(NC(=O)C2CC2)cc1Nc1nccc2c1N(C)C([2H])([2H])c1cc(C)nn1-2` [Compound 73, 6-(cyclopropanecarboxamido)-4-((2,5-dimethyl-4,5-dihydropyrazolo[1,5-a]pyrido[3,4-e]pyrazin-6-yl-4,4-d2)amino)-N-(methyl-d3)pyridazine-3-carboxamide], the IC50 is below 30 nM in experiment [1], below 30 nM in experiment [2], above 1000 nM in experiment [3] and 30 to 300 nM in experiment [4].

On to `CNC(=O)c1nnc(Nc2cc(C)nc(C)n2)cc1Nc1cccc2c1N(C)Cc1cn(C)nc1-2` [Compound 34, 4-((2,5-dimethyl-4,5-dihydro-2H-pyrazolo[4,3-c]quinolin-6-yl)amino)-6-((2,6-dimethylpyrimidin-4-yl)amino)-N-methylpyridazine-3-carboxamide], for which the IC50 in experiment [1] is below 30 nM; in experiment [2] it was below 30 nM; in experiment [3] it was 30 to 300 nM; in experiment [4], 30 to 300 nM.

On to `[2H]C([2H])([2H])NC(=O)c1nnc(NC(=O)NC)cc1Nc1nccc2c1N(C)Cc1cc(C)nn1-2` [Compound 79, 4-((2,5-dimethyl-4,5-dihydropyrazolo[1,5-a]pyrido[3,4-e]pyrazin-6-yl)amino)-N-(methyl-d3)-6-(3-methylureido)pyridazine-3-carboxamide], for which the half-maximal inhibitory concentration (IC50) in experiment [1] is below 30 nM; in experiment [2] it was 30 to 300 nM; in experiment [3], above 1000 nM; in experiment [4] it was above 1000 nM.

Turning to `[2H]C([2H])([2H])NC(=O)c1cnc(NC(=O)C2CC2)cc1Nc1nccc2c1N(C)C([2H])([2H])c1cn(C)nc1-2` [Compound 77, 6-(cyclopropanecarboxamido)-4-((2,5-dimethyl-4,5-dihydro-2H-pyrazolo[4,3-c][1,7]naphthyridin-6-yl-4,4-d2)amino)-N-(methyl-d3)nicotinamide], the IC50 was below 30 nM in experiment [1], below 30 nM in experiment [2], above 1000 nM in experiment [3] and 300 to 1000 nM in experiment [4].

In the case of `[2H]C([2H])([2H])NC(=O)c1nnc(NC(=O)NC)cc1Nc1nccc2c1N(C)[C@@H](C)c1cn(C)nc1-2` (single isomer, unassigned) [Compound 80], the IC50 in experiment [1] is below 30 nM; in experiment [2] it was below 30 nM; in experiment [3] it was above 1000 nM; in experiment [4], above 1000 nM.

`[2H]C([2H])([2H])NC(=O)c1cnc(NC(=O)C2CC2)cc1Nc1cccc2c1N(C)Cc1cc(C)nn1-2` [Compound 53, 6-(cyclopropanecarboxamido)-4-((2,5-dimethyl-4,5-dihydropyrazolo[1,5-a]quinoxalin-6-yl)amino)-N-(methyl-d3)nicotinamide]: the IC50 was below 30 nM in experiment [1], below 30 nM in experiment [2], above 1000 nM in experiment [3] and 30 to 300 nM in experiment [4].

`[2H]C([2H])([2H])NC(=O)c1nnc(NC(=O)N(C)C)cc1Nc1nccc2c1N(C)C([2H])([2H])c1cn(C)nc1-2` [Compound 75, 4-((2,5-dimethyl-4,5-dihydro-2H-pyrazolo[4,3-c][1,7]naphthyridin-6-yl-4,4-d2)amino)-6-(3,3-dimethylureido)-N-(methyl-d3)pyridazine-3-carboxamide]: the IC50 is below 30 nM in experiment [1], 30 to 300 nM in experiment [2], above 1000 nM in experiment [3] and above 1000 nM in experiment [4].

For the compound `[2H]C([2H])([2H])NC(=O)c1cnc(N2CCN(C(C)C)C2=O)cc1Nc1cccc2c1N(C)C([2H])([2H])c1cn(C)nc1-2` [Compound 63, 4-((2,5-dimethyl-4,5-dihydro-2H-pyrazolo[4,3-c]quinolin-6-yl-4,4-d2)amino)-6-(3-isopropyl-2-oxoimidazolidin-1-yl)-N-(methyl-d3)nicotinamide], the IC50 is below 30 nM in experiment [1], 30 to 300 nM in experiment [2], above 1000 nM in experiment [3] and above 1000 nM in experiment [4].

For the compound `[2H]C([2H])([2H])NC(=O)c1cnc(NC(=O)C2CC2)cc1Nc1cccc2c1N(C)C([2H])([2H])c1ccnn1-2` [Compound 59, 6-(cyclopropanecarboxamido)-N-(methyl-d3)-4-((5-methyl-4,5-dihydropyrazolo[1,5-a]quinoxalin-6-yl-4,4-d2)amino)nicotinamide], the IC50 was below 30 nM in experiment [1], below 30 nM in experiment [2], above 1000 nM in experiment [3] and 30 to 300 nM in experiment [4].

As for `[2H]C([2H])([2H])NC(=O)c1nnc(NC(=O)C2CC2)cc1Nc1cccc2c1N(C)C([2H])([2H])c1cc(C)nn1-2` [Compound 56, 6-(cyclopropanecarboxamido)-4-((2,5-dimethyl-4,5-dihydropyrazolo[1,5-a]quinoxalin-6-yl-4,4-d2)amino)-N-(methyl-d3)pyridazine-3-carboxamide], the concentration for half-maximal inhibition (IC50) is below 30 nM in experiment [1], below 30 nM in experiment [2], above 1000 nM in experiment [3] and 30 to 300 nM in experiment [4].

Consider `[2H]C([2H])([2H])NC(=O)c1nnc(NC(=O)C2CC2)cc1Nc1cccc2c1N(C)Cc1cc(C)nn1-2` [Compound 52, 6-(cyclopropanecarboxamido)-4-((2,5-dimethyl-4,5-dihydropyrazolo[1,5-a]quinoxalin-6-yl)amino)-N-(methyl-d3)pyridazine-3-carboxamide], for which the IC50 in experiment [1] was below 30 nM; in experiment [2], below 30 nM; in experiment [3], above 1000 nM; in experiment [4], 300 to 1000 nM.

With `[2H]C([2H])([2H])NC(=O)c1nnc(NC(=O)C2CC2)cc1Nc1nccc2c1N(C([2H])([2H])[2H])Cc1cn(C)nc1-2` [Compound 67, 6-(cyclopropanecarboxamido)-N-(methyl-d3)-4-((2-methyl-5-(methyl-d3)-4,5-dihydro-2H-pyrazolo[4,3-c][1,7]naphthyridin-6-yl)amino)pyridazine-3-carboxamide], the IC50 in experiment [1] was below 30 nM; in experiment [2] it was below 30 nM; in experiment [5], above 1000 nM; in experiment [6], above 1000 nM; in experiment [7], above 1000 nM.

As to `[2H]C([2H])([2H])NC(=O)c1nnc(NC(=O)C2CC2)cc1Nc1cccc2c1N(C)C([2H])([2H])c1ccnn1-2` [Compound 58, 6-(cyclopropanecarboxamido)-N-(methyl-d3)-4-((5-methyl-4,5-dihydropyrazolo[1,5-a]quinoxalin-6-yl-4,4-d2)amino)pyridazine-3-carboxamide], the half-inhibitory concentration (IC50) is below 30 nM in experiment [1], below 30 nM in experiment [2], above 1000 nM in experiment [3] and 300 to 1000 nM in experiment [4].

By IC50 is commonly meant the concentration that gives 50% inhibition.
